Measured values published in patent US10865412B2, “Therapeutics targeting IGFBP7 for the treatment or prevention of heart failure and metabolic diseases” (Ottawa Heart Institute Research Corporation, priority 2016, dated 2020).

Tests used:
[1] = tested on: IGF-1 Receptor β and Akt phosphorylation; assay: IGF-1 receptor-dependent signaling (immunoblotting) in IGFBP7 deficient and WT MEF; assay type: cell-based; settings: ppp 1 or 10 μM for 1 h, IGF-1 (100 ng/ml) 15 min
[2] = tested on: IGF-1/Insulin induced AKT activation; assay: IGF-1/Insulin induced AKT/GSK3β activation (immunoblotting) in human cardiac myocytes; assay type: cell-based; settings: HCM with IGFBP7 siRNA, ppp pre-treatment 1 or 10 μM for 1 h, IGF-1 (100 ng/ml) 15 min
Description: Indeed, in FIG. 9, human cardiac myocytes were treated with (−)control siRNA and IGFBP7 siRNA for 48 h, followed by replacement with basic medium (serum and growth factors withdrew) for 4 h. In FIG. 9(a), the cells were then stimulated with IGF1 (100 ng/ml) or Insulin (4 μg/ml) for 15 min, before lyses of the cell for immunoblotting. Representative immunoblotting of phosphor-AKT, total AKT, phosph-GSK3β and total GSK3β are shown. GAPDH was used as loading control. In FIG. 9(b), before adding IGF-1, cells were pre-treated with IGF-1R inhibitor Picropodophyllin (PPP) ppp at 1 or 10 μM for 1 h, and finally stimulated with IGF-1 (100 ng/ml) for 15 min. Representative immunoblotting of phosphor-AKT and total AKT showing reduced AKT activity in IGFBP7 knock down cells is shown. GAPDH was used as loading control. […] GAPDH were used as loading control.
Whole-cell lysates from tissue and cell samples were prepared on ice with Cell Lysis Buffer (Cell Signaling, 9803) containing a Complete cocktail of proteases inhibitors (Roche Applied Science, 05892791001). […] The supernatants were collected and protein concentrations determined using the Bio-Rad Bradford protein assay (Bio-Rad, 500-0006). […] The intensity of the chemiluminescence signals were detected by using the ChemiDoc XRS+ System (Bio-Rad, 1708265) and quantified using Image Lab software (version 5.2; Bio-Rad). […]

IGFBP7 protein = IGFBP7 protein expression (immunoblotting) in rat neonatal cardiomyocytes treated with hypertrophic stimuli; assay type: cell-based; settings: vs solvent treated control
Description: In order to investigate where Igfbp7 is localized under stress, immunofluorescent staining were used to visualize Igfbp7 in rNCM 2 and 24 hours post treatment. As shown in FIG. 3(b), Igfbp7 were evenly distributed in untreated control cells. Hypertrophic stimuli not only led to increased Igfbp7 expression, but also led to Igfbp7 being localized to the cell membrane. Co-immunostaining with FM1-43 as shown (FIG. 3(c)), upon isoproterenol treatment, Igfbp7 (red) not only moved to cell membrane region, but also co-localized with FM1-43 labeled membrane bound vesicle (green), indicating Igfbp7 was trapped into the membrane bound vesicles for secretion.
NC represents solvent treated control. FIGS. 3(b) and 3(c) show representative confocal microscopy images. […] IGFBP7 was immunofluoresently stained with Alexa Fluor 555 labeled anti-IGFBP7 antibody.
Whole-cell lysates from tissue and cell samples were prepared on ice with Cell Lysis Buffer (Cell Signaling, 9803) containing a Complete cocktail of proteases inhibitors (Roche Applied Science, 05892791001). Lysates were cleared by centrifugation at 12,000 rpm for 10 min. The supernatants were collected and protein concentrations determined using the Bio-Rad Bradford protein assay (Bio-Rad, 500-0006). 20 μg of protein lysate were separated by Bolt Bis-Tris Plus mini Gel System (ThermoFisher) and electrophoretically transferred to PVDF membranes (Bio-Rad, 162-0177). Membranes were incubated overnight at 4° C. with antibodies reactive to the following proteins: IGFBP7 (Abcam, ab171085, 1:1000), CTGF (Abcam, ab6992, 1:1000), 53BP1 (Santa Cruz Biotechnology, sc-22760, 1:200), p21 (Santa Cruz Biotechnology, sc-397, 1:200), Acetyl-p53 (Lys379) (Cell Signaling, #2570, 1:1000), p53 (1C12) (Cell Signaling, #2524, 1:1000), Phospho-IRS-1 (Ser612) (Cell Signaling, #3203, 1:500), Phospho-IRS-1 (Ser318) (Cell Signaling, #5610, 1:500), IRS-1 (Cell signaling, #3407, 1:500), Phospho-Akt (Ser473) (Cell Signaling, #4060, 1:1000), Phospho-Akt (Thr308) (Cell Signaling, #4056, 1:1000), Akt (pan) (Cell Signaling, #4691, 1:1000), Phospho-Erk1/2 (Thr202/Tyr204) (Cell Signaling, #4307, 1:1000), Erk1/2 (Cell Signaling, #9102, 1:1000), Phospho-GSK-3β (Ser9) (Cell Signaling, #9323, 1:1000), GSK-3β (Cell Signaling, #9315, 1:1000), Phospho-IGF-1 Receptor β ((Thy1135) (Cell Signaling, #3918, 1:500), IGF-1 Receptor β (Cell Signaling, #9750, 1:500). […] The intensity of the chemiluminescence signals were detected by using the ChemiDoc XRS+ System (Bio-Rad, 1708265) and quantified using Image Lab software (version 5.2; Bio-Rad). […]

[3] = tested on: IGF-1/Insulin induced AKT and Gsk3β activation; assay: IGF-1/Insulin induced Akt and Gsk3β activation in HCM with internal over-expression of IGFBP7; assay type: cell-based, human; settings: HCM transfected with IGFBP7 plasmid, inhibitor 500 nM for 1 h before IGF-1 or Insulin 15 min
[4] = tested on: IGF-1/Insulin induced AKT and Gsk3β activation; assay: Effect of external recombinant IGFBP7 protein on IGF-1/Insulin induced AKT and Gsk3β activation in HCM; assay type: cell-based, human; settings: HCM pretreated with recombinant protein for 2 h, then IGF-1 or insulin 15 min
Description: HCM were pretreated with recombinant IGFBP7 protein at indicated concentration for 2 h, followed by IGF-1 or insulin induction for 15 min. Vinculin was used as loading control.
Whole-cell lysates from tissue and cell samples were prepared on ice with Cell Lysis Buffer (Cell Signaling, 9803) containing a Complete cocktail of proteases inhibitors (Roche Applied Science, 05892791001). Lysates were cleared by centrifugation at 12,000 rpm for 10 min. The supernatants were collected and protein concentrations determined using the Bio-Rad Bradford protein assay (Bio-Rad, 500-0006). 20 μg of protein lysate were separated by Bolt Bis-Tris Plus mini Gel System (ThermoFisher) and electrophoretically transferred to PVDF membranes (Bio-Rad, 162-0177). […] The intensity of the chemiluminescence signals were detected by using the ChemiDoc XRS+ System (Bio-Rad, 1708265) and quantified using Image Lab software (version 5.2; Bio-Rad). […]
To generate IGFBP7 expression plasmid, human IGFBP7 CDS with 6× His Epitope tag added to the 3′-end were generated by GeneArt gene synthesis and subcloned into pcDNA3.4 TOPO TA Cloning vector (ThermoFisher) to make plasmid pcDNA3.4-hIGFBP7-6× His. […] Expression of secreted IGFBP7-6× His recombinant protein in culture media was monitored daily by immonoblotting with anti 6× His Epitope Tag antibody (ThermoFisher, MA1-21315). […]

COc1cc([C@@H]2c3cc4c(cc3[C@H](O)[C@H]3COC(=O)[C@@H]23)OCO4)cc(OC)c1OC [Picropodophyllin, picropodophyllin]
AKT phosphorylation in IGFBP7 deficient MEF [1]: further reduced | AKT phosphorylation in WT MEF [1]: not in WT MEF | IGF-1R phosphorylation in IGFBP7 deficient MEF [1]: further reduced | AKT activation after IGF-1 stimulation in IGFBP7 knock down cells [2]: further reduced

insulin
IGFBP7 protein expression (IGFBP7 protein; insulin 4 μg/ml): significantly up-regulated

CC(C)NCC(O)c1ccc(O)c(O)c1 (stereo not shown) [isoproterenol]
IGFBP7 protein expression (IGFBP7 protein; isoproterenol 100 nM): significantly up-regulated

angiotensin II (DRVYIHPF; Angiotensin-2; UniProt P01019 25-32, looked up) [hypertrophic stimulus]
IGFBP7 protein expression (IGFBP7 protein; 100 nM angiotensin II): significantly up-regulated

C[C@@]1(C(=O)Nc2ccc(F)nc2)CCCN1c1nc(Nc2cc(C3CC3)n[nH]2)c2cccn2n1 [BMS-754807]
IGF-1/Insulin induced AKT and GSK3β activation increased by internal over-expression of IGFBP7 [3]: blocked

CNC[C@H](O)c1cccc(O)c1 [phenylephrine]
IGFBP7 protein expression (IGFBP7 protein; phenylephrine 200 nM): significantly up-regulated

B1: recombinant IGFBP7 protein: recombinant human IGFBP7 protein with 6× His tag expressed in Expi293F cells (protein, UniProt Q16270 27-282, looked up)
Insulin-like growth …: SSSDTCGPCEPASCPPLPPLGCLLGETRDACGCCPMCARGEGEPCGGGGAGRGYCAPGMECVKSRKRRKGKAGAAAGGPGVSGVCVCKSRYPVCGSDGTTYPSGCQLRAASQRAESRGEKAITQVSKGTCEQGPSIVTPPKDIWNVTGAQVYLSCEVIGIPTPVLIWNKVKRGHYGVQRTELLPGDRDNLAIQTRGGPEKHEVTGWVLVSPLSKEDAGEYECHASNSQGQASASAKITVVDALHEIPVKKGEGAEL
modifications: 6xHis tag
notes: recombinant human IGFBP7 protein with 6× His tag expressed in Expi293F cells
Effect on IGF-1/Insulin induced AKT and Gsk3β activation [4]: no observed effect
